This note sets out measurements from ChEMBL document CHEMBL4627390, “Effect of Temperature on 1H NMR Spectra, Antitrypanosomal Activity, Conformational Analysis, and Molecular Docking of Curine Derivatives from Berberis brevissima” (2020).

As a reminder, the MIC is the smallest concentration in the dilution series that meets the test's criterion for growth inhibition. Lower therefore signals greater potency.

Assay type in all cases: functional
The subject of assay [1] is Trypanosoma brucei brucei. Description: Antitrypanosomal activity against Trypanosoma brucei brucei TC427 trypomastigotes after 24 hrs by AlamarBlue assay. As to conditions: TC427, 24 h.
The subject of assay [2] is Trypanosoma brucei brucei. Description: Antitrypanosomal activity against Trypanosoma brucei brucei TC427 trypomastigotes assessed percent viability at 20 ug/ml after 24 hrs by AlamarBlue assay relative to DMSO. (Resazurin is reduced to fluorescent resorufin, in cell work by metabolically active cells.)
Assay [3] concerns Trypanosoma brucei brucei. Description: Antitrypanosomal activity against Trypanosoma brucei brucei.

Molecules are shown by their SMILES. Values after ≈ are worked out from the molar mass of the structure shown.

`COc1cc2c3cc1Oc1cc(ccc1O)C[C@@H]1c4c(cc(OC)c(O)c4Oc4ccc(cc4)C[C@H]3N(C)CC2)CCN1C`: in assay [1], it took 3.8 µM (≈ 2.26 µg/mL) to inhibit growth (MIC). Further, the Activity in assay [2] stood at 1.9%.
For the compound `COc1cc2c3cc1Oc1cc(ccc1O)C[C@@H]1c4c(cc(OC)c(OC)c4Oc4ccc(cc4)C[C@H]3N(C)CC2)CCN1C`, it took 2.6 µM (≈ 1.58 µg/mL) to inhibit growth in assay [1] (MIC). This compound had an Activity in assay [2] of 1.6%.
As to `COc1ccc2c(c1OC)C(C(Cl)(Cl)Cl)N1CCc3cc4c(cc3C1=C2)OCO4` (stereo not given), in assay [3], the minimal inhibitory concentration (MIC) came out at 27.6 µM (≈ 12.6 µg/mL).
The compound `COc1cc2c3cc1Oc1cc(ccc1OC(C)=O)C[C@@H]1c4c(cc(OC)c(OC)c4Oc4ccc(cc4)C[C@H]3N(C)CC2)CCN1C` came in with an MIC in assay [1] of 2.3 µM (≈ 1.5 µg/mL). This compound also registered an Activity in assay [2] of 1.4%.
`COc1cc2c3cc1Oc1cc(cc([N+](=O)[O-])c1O)C[C@@H]1c4c(cc(OC)c(OC)c4Oc4ccc(cc4)C[C@H]3N(C)CC2)CCN1C` showed an MIC in assay [1] of 2.2 µM (≈ 1.44 µg/mL). The same compound came in with an Activity in assay [2] of 1.5%.
`COc1ccc2cc3[n+](cc2c1OC)CCc1cc2c(cc1-3)OCO2` [BERBERINE] came in with an MIC in assay [3] of 74.4 µM.
